Where two headings read alike, the source gives them in different places. Where a SMILES comes first, the peptide text is derived from it. [ ]: non-standard residue; d: D form. Dmt = Cc1cc(O)cc(C)c1C[C@H](N)C(=O)O; Tic = O=C(O)[C@@H]1Cc2ccccc2CN1
How the values were obtained:
[1] = biological target: T1, δ receptor (Mus musculus, UniProt P32300); assay: mouse vas deferens
[2] = biological target: T2, μ opioid receptors (Rattus norvegicus, UniProt P33535); assay: μ opioid receptor binding, displacement of [3H]DAMGO from rat brain membranes; conditions: relative to 4a
[3] = tested on: μ and κ receptor; assay: guinea pig ileum
[4] = tested on: μ and κ receptor; conditions: cited from earlier work
[5] = biological target: T1, δ receptor; conditions: cited from earlier work
[6] = cited from earlier work
[7] = given i.c.v.; cited from earlier work
[8] = biological target: T2, μ opioid receptors; conditions: read-out: Ki^μ; [3H]DAMGO, rat brain membranes; cited from earlier work
[9] = biological target: κ opioid receptor (Cavia porcellus, UniProt P41144); conditions: read-out: Ki^κ; [3H]U69,593, guinea pig brain membranes; cited from earlier work
κ opioid receptor, sequence (P41144 whole entry): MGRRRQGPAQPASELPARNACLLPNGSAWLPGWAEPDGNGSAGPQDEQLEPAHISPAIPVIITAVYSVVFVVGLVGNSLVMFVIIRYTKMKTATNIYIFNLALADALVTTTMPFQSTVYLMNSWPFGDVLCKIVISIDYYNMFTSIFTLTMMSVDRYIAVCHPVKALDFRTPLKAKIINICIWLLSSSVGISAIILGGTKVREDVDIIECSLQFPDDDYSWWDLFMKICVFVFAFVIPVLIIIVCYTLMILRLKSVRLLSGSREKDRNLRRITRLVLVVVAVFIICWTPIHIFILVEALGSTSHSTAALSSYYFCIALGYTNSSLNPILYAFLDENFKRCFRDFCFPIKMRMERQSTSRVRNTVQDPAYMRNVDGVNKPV

T1 sequence (P32300 whole entry): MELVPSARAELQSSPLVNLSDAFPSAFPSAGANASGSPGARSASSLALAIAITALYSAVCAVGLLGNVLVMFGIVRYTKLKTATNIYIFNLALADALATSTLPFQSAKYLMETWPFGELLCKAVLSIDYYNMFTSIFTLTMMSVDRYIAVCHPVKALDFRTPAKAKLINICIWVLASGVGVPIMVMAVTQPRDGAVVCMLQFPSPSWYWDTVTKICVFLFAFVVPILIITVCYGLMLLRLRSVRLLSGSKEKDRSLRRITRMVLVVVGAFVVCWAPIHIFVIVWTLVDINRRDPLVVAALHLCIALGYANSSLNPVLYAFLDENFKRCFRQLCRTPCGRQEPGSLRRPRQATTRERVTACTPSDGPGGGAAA
T2 sequence (P33535 whole entry): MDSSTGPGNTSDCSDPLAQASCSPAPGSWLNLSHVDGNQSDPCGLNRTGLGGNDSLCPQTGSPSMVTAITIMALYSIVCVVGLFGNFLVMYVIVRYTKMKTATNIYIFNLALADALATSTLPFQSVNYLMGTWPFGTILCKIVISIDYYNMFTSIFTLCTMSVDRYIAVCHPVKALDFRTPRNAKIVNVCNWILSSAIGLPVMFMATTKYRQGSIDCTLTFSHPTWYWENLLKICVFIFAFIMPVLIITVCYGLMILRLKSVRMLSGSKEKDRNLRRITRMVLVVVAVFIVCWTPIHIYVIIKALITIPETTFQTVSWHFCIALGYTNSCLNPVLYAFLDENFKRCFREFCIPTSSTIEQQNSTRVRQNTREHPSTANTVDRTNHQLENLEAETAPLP

Cc1cc(O)cc(C)c1C[C@H](N)C(=O)N1Cc2ccccc2C[C@H]1C(=O)N[C@@H](CCCCN)C(=O)N[C@@H](Cc1ccccc1)C(N)=O [Compound 6a, H-Dmt-Tic-Lys-Phe-NH2] (HELM PEPTIDE1{[Cc1cc(O)cc(C)c1C[C@H](N)C(=O)[*:2]].[Tic].K.F.[am]}$$$$V2.0)
Kb [1]: 2.18 ± 0.3 nM
type of activity in the MVD assay [1]: δ antagonist
fold lower μ receptor affinity than 4a [2]: 16 fold
type of activity in the GPI assay [3]: μ agonist

H-Tyr-Ticψ[CH2NH]Phe-Phe-OH [Compound 3a]
GPI IC50 (agonist potency) [4]: inactive
type of activity in the MVD assay [5]: potent δ antagonists

H-Y[Tic]FF-OH [Compound 1a]
GPI IC50 (agonist potency) [4]: inactive
type of activity in the MVD assay [5]: potent δ antagonists

H-Dmt-Ticψ[CH2NH]Phe-Phe-NH2 [Compound 5a]
IC50 ([4]; read-out: GPI IC50 (agonist potency)): 7.71 ± 0.31 nM
MVD Ke (δ antagonist activity) [5]: 0.537 ± 0.026 nM
physical dependence upon chronic administration [6]: no physical dependence
analgesic tolerance upon chronic administration ([6]; compared with morphine): less analgesic tolerance than morphine
analgesic effect in the rat tail flick test [7]: potent analgesic effect

H-[Dmt]-[Tic]-OH [Compound 8a]
GPI IC50 (agonist potency) [4]: Inactive
Ki [8]: 1360 ± 160 nM
Ki [9]: > 1000 nM

H-[Dmt][Tic]FF-NH2 [Compound 4a]
MVD Ke (δ antagonist activity) [5]: 0.209 ± 0.037 nM

H-[Dmt][Tic]FF-OH [Compound 2a]
GPI IC50 (agonist potency) [4]: inactive
MVD Ke (δ antagonist activity) [5]: 0.196 ± 0.008 nM
type of activity in the MVD assay [5]: potent δ antagonists

— paper PMC3776131 (Bioorganic & medicinal chemistry letters, 2013)
